Test results reported in PubChem BioAssay AID296 (DTP/NCI, 2004).
Values joined by “and” are separate entries in the source; they are usually repeats but may differ in a detail not shown here. Identical values can stand only once. Results filed as inconclusive are left out.

Test system: MX-1 breast xenograft, nude mice, tumor weight T/C
Assay: NCI In Vivo Anticancer Drug Screen. Data for tumor model Human Mammary Carcinoma MX-1 Xenograft (intrarenal inoculation) in NU/NU Swiss (nude) mice
Details: endpoint: mean tumor weight change, higher = larger tumour
In short: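 Antitumour effect measured in vivo against vehicle controls, expressed as T/C.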

[1] = dose: 25.0 mg/kg/injection, schedule: Q01DX010 (sc), vehicle: saline
[2] = dose: 100.0 mg/kg/injection, schedule: Q01DX010 (sc), vehicle: saline
[3] = dose: 200.0 mg/kg/injection, schedule: Q01DX010 (sc), vehicle: saline
[4] = dose: 300.0 mg/kg/injection, schedule: Q04DX003 (sc), vehicle: saline
[5] = dose: 600.0 mg/kg/injection, schedule: Q04DX003 (sc), vehicle: saline
[6] = dose: 1200.0 mg/kg/injection, schedule: Q04DX003 (sc), vehicle: saline
[7] = dose: 2400.0 mg/kg/injection, schedule: Q04DX003 (sc), vehicle: saline
[8] = dose: 200.0 mg/kg/injection, schedule: Q04DX003 (sc), vehicle: saline with Tween-80
[9] = dose: 800.0 mg/kg/injection, schedule: Q04DX003 (sc), vehicle: saline with Tween-80
[10] = dose: 50.0 mg/kg/injection, schedule: Q01DX010 (sc), vehicle: saline
[11] = dose: 400.0 mg/kg/injection, schedule: Q04DX003 (sc), vehicle: saline with Tween-80
[12] = dose: 100.0 mg/kg/injection, schedule: Q04DX003 (sc), vehicle: saline with Tween-80
[13] = dose: 100.0 mg/kg/injection, schedule: Q04DX003 (sc), vehicle: Klucel (hydroxypropylcellulose) (HPC)
[14] = dose: 200.0 mg/kg/injection, schedule: Q04DX003 (sc), vehicle: Klucel (hydroxypropylcellulose) (HPC)
[15] = dose: 400.0 mg/kg/injection, schedule: Q04DX003 (sc), vehicle: Klucel (hydroxypropylcellulose) (HPC)

`C[C@]12CC[C@@H]3c4ccc(O)cc4CC[C@H]3[C@@H]1CC[C@@H]2O` was tested, and the T/C (dose: 150.0 mg/kg/injection, schedule: Q04DX003 (sc), vehicle: Klucel (hydroxypropylcellulose) (HPC)) was 101 % of control, the T/C (dose: 300.0 mg/kg/injection, schedule: Q04DX003 (sc), vehicle: Klucel (hydroxypropylcellulose) (HPC)) was 101 % of control and the T/C (dose: 600.0 mg/kg/injection, schedule: Q04DX003 (sc), vehicle: Klucel (hydroxypropylcellulose) (HPC)) was 101 % of control. For the same compound, the T/C (dose: 1200.0 mg/kg/injection, schedule: Q04DX003 (sc), vehicle: Klucel (hydroxypropylcellulose) (HPC)) was 104 % of control.

With `CN(C)N=Nc1ccc(C(=O)O)cc1` the T/C (dose: 100.0 mg/kg/injection, schedule: Q04DX003 (ip), vehicle: saline) was 55 % of control, the T/C (dose: 200.0 mg/kg/injection, schedule: Q04DX003 (ip), vehicle: saline) was 16 % of control and the T/C (dose: 400.0 mg/kg/injection, schedule: Q04DX003 (ip), vehicle: saline) was -31 % of control.

For `Cc1c2cc[n+](C)cc2c(C)c2c1[nH]c1ccc(O)cc12`, the T/C (dose: 1.5 mg/kg/injection, schedule: Q04DX003 (sc), vehicle: water) was 167 % of control and the T/C (dose: 6.0 mg/kg/injection, schedule: Q04DX003 (sc), vehicle: water) was 91 % of control.

`OCC1OC(n2cnc3c(=S)nc[nH]c32)C(O)C1O` (configuration not stated) was tested, and the T/C [1] was 38 % of control and 60 % of control, the T/C (dose: 50.0 mg/kg/injection, schedule: Q01DX010 (sc), vehicle: suspension in saline) was 84 % of control and the T/C [2] was 12 % of control and 17 % of control. For the same compound, the T/C (dose: 100.0 mg/kg/injection, schedule: Q01DX010 (sc), vehicle: suspension in saline) was -81 % of control, the T/C [3] was -22 % of control and the T/C [4] was 98 % of control. The T/C [5] was 69 % of control, the T/C [6] was 39 % of control and the T/C [7] was 13 % of control.

In the case of `C=C(C)[C@H]1CN[C@H](C(=O)O)[C@H]1CC(=O)O`, the T/C (dose: 20.0 mg/kg/injection, schedule: Q04DX003 (sc), vehicle: suspension in saline) is reported as 75 % of control and the T/C (dose: 40.0 mg/kg/injection, schedule: Q04DX003 (sc), vehicle: suspension in saline) is reported as 36 % of control.

With `Cc1ccc(N)c(N)c1` the T/C [8] was 87 % of control and the T/C [9] was 112 % of control.

In the case of `O=C(NO)c1cc(O)c(O)c(O)c1`, the T/C (dose: 200.0 mg/kg/injection, schedule: Q04DX003 (sc), vehicle: distilled water + Tween-80) is reported as 64 % of control, the T/C (dose: 400.0 mg/kg/injection, schedule: Q04DX003 (sc), vehicle: distilled water + Tween-80) is reported as 109 % of control and the T/C (dose: 800.0 mg/kg/injection, schedule: Q04DX003 (sc), vehicle: distilled water + Tween-80) is reported as 122 % of control.

`CCOC(=O)c1c[nH]c2oc(/C=N/N3CC(CN4CCOCC4)OC3=O)cc2c1=O` (configuration not stated) was tested, and the T/C [10] was 116 % of control, the T/C [2] was 77 % of control and the T/C [3] was 98 % of control. For the same compound, the T/C (dose: 400.0 mg/kg/injection, schedule: Q01DX010 (sc), vehicle: saline) was 72 % of control.

In the case of `CSc1ncnc2c1ncn2C1OC(CO)C(O)C1O` (configuration not stated), the T/C (dose: 75.0 mg/kg/injection, schedule: Q04DX003 (sc), vehicle: saline + alcohol) is reported as 3 % of control and 14 % of control, the T/C (dose: 150.0 mg/kg/injection, schedule: Q04DX003 (sc), vehicle: saline + alcohol) is reported as -81 % of control and -100 % of control and the T/C (dose: 300.0 mg/kg/injection, schedule: Q04DX003 (sc), vehicle: saline + alcohol) is reported as -90 % of control.

With `O=c1c(O)c(-c2cc(O)c(O)c(O)c2)oc2cc(O)cc(O)c12` the T/C (dose: 3.0 mg/kg/injection, schedule: Q04DX003 (sc), vehicle: saline with Tween-80) was 117 % of control, the T/C (dose: 6.0 mg/kg/injection, schedule: Q04DX003 (sc), vehicle: saline with Tween-80) was 97 % of control and the T/C (dose: 12.0 mg/kg/injection, schedule: Q04DX003 (sc), vehicle: saline with Tween-80) was 108 % of control. The T/C (dose: 24.0 mg/kg/injection, schedule: Q04DX003 (sc), vehicle: saline with Tween-80) was 81 % of control.

For `N#CC(OC1OC(COC2OC(CO)C(O)C(O)C2O)C(O)C(O)C1O)c1ccccc1` (configuration not stated), the T/C [4] was 67 % of control, the T/C [5] was 83 % of control and the T/C [6] was 71 % of control. The T/C [7] was 75 % of control.

`COc1ccc2c(c1)CCn1c(C)c(COC(=O)NC(C)C)c(COC(=O)NC(C)C)c1-2` was tested, and the T/C (dose: 150.0 mg/kg/injection, schedule: Q04DX003 (sc), vehicle: distilled water + Tween-80) was 6 % of control, the T/C (dose: 300.0 mg/kg/injection, schedule: Q04DX003 (sc), vehicle: distilled water + Tween-80) was 3 % of control and the T/C (dose: 600.0 mg/kg/injection, schedule: Q04DX003 (sc), vehicle: distilled water + Tween-80) was -100 % of control. The T/C (dose: 1200.0 mg/kg/injection, schedule: Q04DX003 (sc), vehicle: distilled water + Tween-80) was -100 % of control.

`C/C=C/C=C/c1cc2cc3c(c(O)c2c(=O)[nH]1)C1(CC3)C(O)=c2c(=O)c3c(=O)cc(OC)c(=O)c=3c(=O)c2=C1O` (configuration not stated) was tested, and the T/C (dose: 8.0 mg/kg/injection, schedule: Q01DX010 (sc), vehicle: DMSO) was 122 % of control and the T/C (dose: 16.0 mg/kg/injection, schedule: Q01DX010 (sc), vehicle: DMSO) was 91 % of control.

In the case of `C[Si](C)(C)O/C=C1\CCCCC1=O`, the T/C [8] is reported as 94 % of control and the T/C [11] is reported as 89 % of control.

`CCN=C=NCCCN(C)C` was tested, and the T/C (dose: 25.0 mg/kg/injection, schedule: Q04DX003 (sc), vehicle: saline) was 112 % of control and the T/C (dose: 50.0 mg/kg/injection, schedule: Q04DX003 (sc), vehicle: saline) was 76 % of control.

For `c1cn[nH]c1`, the T/C (dose: 75.0 mg/kg/injection, schedule: Q04DX003 (ip), vehicle: saline) was 106 % of control, the T/C (dose: 150.0 mg/kg/injection, schedule: Q04DX003 (ip), vehicle: saline) was 96 % of control and the T/C (dose: 300.0 mg/kg/injection, schedule: Q04DX003 (ip), vehicle: saline) was 69 % of control. For the same compound, the T/C (dose: 600.0 mg/kg/injection, schedule: Q04DX003 (ip), vehicle: saline) was 71 % of control.

`O=C1NC(c2ccccc2)N=C2Oc3ccccc3C=C12` (configuration not stated) was tested, and the T/C (dose: 50.0 mg/kg/injection, schedule: Q01DX008 (sc), vehicle: saline with Tween-80) was 57 % of control, the T/C (dose: 100.0 mg/kg/injection, schedule: Q01DX008 (sc), vehicle: saline with Tween-80) was 71 % of control and the T/C (dose: 200.0 mg/kg/injection, schedule: Q01DX008 (sc), vehicle: saline with Tween-80) was 56 % of control. The T/C (dose: 400.0 mg/kg/injection, schedule: Q01DX008 (sc), vehicle: saline with Tween-80) was 80 % of control.

With `O=C(O)C(O)C(O)C1[O][Sb][O]C1C(=O)O` (configuration not stated) the T/C (dose: 75.0 mg/kg/injection, schedule: Q04DX003 (sc), vehicle: saline) was 91 % of control and the T/C (dose: 150.0 mg/kg/injection, schedule: Q04DX003 (sc), vehicle: saline) was 99 % of control.

In the case of `c1cc[c]([Sn]([NH]c2ncnc3[nH]cnc23)([NH]c2ncnc3[nH]cnc23)[c]2ccccc2)cc1`, the T/C (dose: 75.0 mg/kg/injection, schedule: Q04DX003 (sc), vehicle: suspension in saline) is reported as 76 % of control, the T/C (dose: 150.0 mg/kg/injection, schedule: Q04DX003 (sc), vehicle: suspension in saline) is reported as 109 % of control and the T/C (dose: 300.0 mg/kg/injection, schedule: Q04DX003 (sc), vehicle: suspension in saline) is reported as 111 % of control. For the same compound, the T/C (dose: 600.0 mg/kg/injection, schedule: Q04DX003 (sc), vehicle: suspension in saline) was 76 % of control.

In the case of `CN1CCN(CCCN2c3ccccc3Sc3ccc(C(F)(F)F)cc32)CC1`, the T/C [1] is reported as 107 % of control, the T/C [10] is reported as 61 % of control and 73 % of control and the T/C [2] is reported as 31 % of control and 52 % of control. For the same compound, the T/C [3] was 32 % of control.

In the case of `COC(=O)Nc1nc2ccc(C3(c4ccc(F)cc4)OCCO3)cc2[nH]1`, the T/C (dose: 50.0 mg/kg/injection, schedule: Q04DX003 (sc), vehicle: saline with Tween-80) is reported as 100 % of control and the T/C [12] is reported as 79 % of control.

In the case of `NS(=O)(=O)OCCCCCCCOS(N)(=O)=O`, the T/C (dose: 150.0 mg/kg/injection, schedule: Q04DX003 (ip), vehicle: saline with Tween-80) is reported as -97 % of control.

With `ClC1=C(Cl)C(Cl)=C(Cl)C1=Cc1ccccc1` the T/C [12] was 98 % of control, the T/C [8] was 119 % of control and the T/C [11] was 98 % of control. The T/C [9] was 110 % of control.

With `CCc1ccccc1N1CCN(C(=O)c2cc(OC)c(OC)c(OC)c2)CC1` the T/C [13] was 88 % of control, the T/C [14] was 86 % of control and the T/C [15] was 50 % of control.

In the case of `O=c1[nH]cnc2n[nH]nc12`, the T/C [13] is reported as 54 % of control, the T/C [14] is reported as 27 % of control and the T/C [15] is reported as 48 % of control. The T/C (dose: 800.0 mg/kg/injection, schedule: Q04DX003 (sc), vehicle: Klucel (hydroxypropylcellulose) (HPC)) was 31 % of control.
